Reference: ChEMBL document CHEMBL4813938, “Astragaloside IV Improves Tibial Defect in Rats and Promotes Proliferation and Osteogenic Differentiation of hBMSCs through MiR-124-3p.1/STAT3 Axis” (J Nat Prod, 2021)
Activity calls are given as the source filed them. No cut-off for these calls is given here.

Experiments:
[1] = system: Rattus norvegicus; experiment: Induction of tibial bone defect regeneration in ip dosed Lewis rat assessed as reduction in […] mRNA expression level administered for 10 consecutive days by RT-qPCR analysis; type: functional, organism-based; details: dose 0.16-4 g/Kg, time 10.0 day
[2] = system: Rattus norvegicus; experiment: Induction of tibial bone defect regeneration in ip dosed Lewis rat assessed as […] in STAT3 mRNA expression level administered for 10 consecutive days by RT-qPCR analysis; type: functional, organism-based; details: dose 0.16-4 g/Kg, time 10.0 day
[3] = system: Rattus norvegicus; experiment: Induction of tibial bone defect regeneration in ip dosed Lewis rat assessed as […] in STAT3 protein expression level administered for 10 consecutive days by Western blotting analysis; type: functional, organism-based; details: dose 0.16-4 g/Kg, time 10.0 day
[4] = system: Rattus norvegicus; experiment: Induction of tibial bone defect regeneration in ip dosed Lewis rat assessed as increase in BV/TV of tibial bone administered for 10 consecutive days by microcomputed tomography method; type: functional, organism-based; details: dose 0.16-4 g/Kg, time 10.0 day
[5] = system: Rattus norvegicus; experiment: Induction of tibial bone defect regeneration in ip dosed Lewis rat assessed as increase in Tb.N of tibial bone administered for 10 consecutive days by microcomputed tomography method; type: functional, organism-based; details: dose 0.16-4 g/Kg, time 10.0 day
[6] = system: Rattus norvegicus; experiment: Induction of tibial bone defect regeneration in ip dosed Lewis rat assessed as increase in Tb.Th of tibial bone administered for 10 consecutive days by microcomputed tomography method; type: functional, organism-based; details: dose 0.16-4 g/Kg, time 10.0 day
[7] = system: Rattus norvegicus; experiment: Induction of tibial bone defect regeneration in ip dosed Lewis rat assessed as increase in BMD of tibial bone administered for 10 consecutive days by microcomputed tomography method; type: functional, organism-based; details: dose 0.16-4 g/Kg, time 10.0 day
[8] = system: Rattus norvegicus; experiment: Induction of tibial bone defect regeneration in ip dosed Lewis rat assessed as decrease in Tb.Sp of tibial bone administered for 10 consecutive days by microcomputed tomography method; type: functional, organism-based; details: dose 0.16-4 g/Kg, time 10.0 day
[9] = system: HBMSC; experiment: Induction of osteogenic differentiation in human BMSCs assessed as increase in cell viability incubated for 72 hrs under osteogenic conditions by MTT assay; type: functional, tissue-based; details: dose 80-320 mg/ml
[10] = system: HBMSC; experiment: Induction of cell cycle arrest in human BMSCs assessed as decrease in cells at G0/G1 phase under osteogenic conditions by PI staining based flow cytometric analysis; type: functional; details: dose 80-320 mg/ml
[11] = system: HBMSC; experiment: Induction of cell cycle arrest in human BMSCs assessed as accumulation of cells at S phase under osteogenic conditions by PI staining based flow cytometric analysis; type: functional, tissue-based; details: dose 80-320 mg/ml
[12] = system: HBMSC; experiment: Induction of cell cycle arrest in human BMSCs assessed as accumulation of cells at G2/M phase under osteogenic conditions by PI staining based flow cytometric analysis; type: functional, tissue-based; details: dose 80-320 mg/ml
[13] = system: HBMSC; experiment: Induction of osteogenic differentiation in human BMSCs assessed as increase in alkaline phosphatase activity incubated for 21 days under osteogenic conditions by ELISA; type: functional, tissue-based; details: dose 80-320 mg/ml, time 21.0 day
[14] = system: HBMSC; experiment: Induction of osteogenic differentiation in human BMSCs assessed as increase in osteogenic medium-induced matrix mineralization by measuring calcium deposition by Alizarin Red S staining-based microscopic analysis; type: functional, tissue-based; details: dose 80-320 mg/ml
[15] = system: HBMSC; experiment: Induction of osteogenic differentiation in human BMSCs assessed as increase in osteogenic medium-induced RUNX2 protein expression level by Western blot analysis; type: functional, tissue-based; details: dose 80-320 mg/ml
[16] = system: HBMSC; experiment: Induction of osteogenic differentiation in human BMSCs assessed as increase in osteogenic medium-induced OCN protein expression level by Western blot analysis; type: functional, tissue-based; details: dose 80-320 mg/ml
[17] = system: HBMSC; experiment: Induction of osteogenic differentiation in human BMSCs assessed as increase in osteogenic medium-induced Smad4 protein expression level by Western blot analysis; type: functional, tissue-based; details: dose 80-320 mg/ml
[18] = system: HBMSC; experiment: Induction of osteogenic differentiation in human BMSCs assessed as increase in osteogenic medium-induced RUNX2 mRNA expression level by RT-qPCR analysis; type: functional, tissue-based
[19] = system: HBMSC; experiment: Induction of osteogenic differentiation in human BMSCs assessed as increase in osteogenic medium-induced OCN mRNA expression level by RT-qPCR analysis; type: functional, tissue-based; details: dose 80-320 mg/ml
[20] = system: HBMSC; experiment: Induction of osteogenic differentiation in human BMSCs assessed as increase in osteogenic medium-induced Smad4 mRNA expression level by RT-qPCR analysis; type: functional, tissue-based; details: dose 80-320 mg/ml
[21] = system: HBMSC; experiment: Induction of osteogenic differentiation in human BMSCs assessed as down regulation of miR-124-3p.1 mRNA expression level at 160 mg/ml under osteogenic condition by RT-qPCR analysis; type: functional, tissue-based
[22] = system: Rattus norvegicus; experiment: Induction of tibial bone defect regeneration in ip dosed Lewis rat assessed as alleviation of bone injury administered for 10 consecutive days by HE staining based assay; type: functional, organism-based; details: dose 0.16-4 g/Kg, time 10.0 day
[23] = system: Rattus norvegicus; experiment: Induction of tibial bone defect regeneration in ip dosed Lewis rat assessed as increase in Conn.D of tibial bone administered for 10 consecutive days by microcomputed tomography method; type: functional, organism-based; details: dose 0.16-4 g/Kg, time 10.0 day
[24] = system: HBMSC; experiment: Induction of osteogenic differentiation in human BMSCs overexpressing miR-124-3p.1 assessed as increase in cell viability at 160 mg/ml incubated for 72 hrs under osteogenic conditions by MTT assay; type: functional, tissue-based
[25] = system: HBMSC; experiment: Induction of cell cycle arrest in human BMSCs overexpressing miR-124-3p.1 assessed as decrease in cells at G0/G1 phase at 160 mg/ml under osteogenic conditions by PI staining based flow cytometric analysis; type: functional
[26] = system: HBMSC; experiment: Induction of cell cycle arrest in human BMSCs overexpressing miR-124-3p.1 assessed as accumulation of cells at S phase at 160 mg/ml under osteogenic conditions by PI staining based flow cytometric analysis; type: functional, tissue-based
[27] = system: HBMSC; experiment: Induction of cell cycle arrest in human BMSCs overexpressing miR-124-3p.1 assessed as accumulation of cells at G2/M phase at 160 mg/ml under osteogenic conditions by PI staining based flow cytometric analysis; type: functional, tissue-based
[28] = system: HBMSC; experiment: Induction of osteogenic differentiation in human BMSCs overexpressing miR-124-3p.1 assessed as increase in alkaline phosphatase activity at 160 mg/ml incubated for 21 days under osteogenic conditions by ELISA; type: functional, tissue-based; details: time 21.0 day
[29] = system: HBMSC; experiment: Induction of osteogenic differentiation in human BMSCs overexpressing miR-124-3p.1 assessed as increase in osteogenic medium-induced matrix mineralization by measuring calcium deposition at 160 mg/ml by Alizarin Red S staining-based microscopic analysis; type: functional, tissue-based
[30] = system: HBMSC; experiment: Induction of osteogenic differentiation in human BMSCs overexpressing miR-124-3p.1 assessed as increase in osteogenic medium-induced RUNX2 protein expression level at 160 mg/ml by Western blot analysis; type: functional, tissue-based
[31] = system: HBMSC; experiment: Induction of osteogenic differentiation in human BMSCs overexpressing miR-124-3p.1 assessed as increase in osteogenic medium-induced OCN protein expression level at 160 mg/ml by Western blot analysis; type: functional
[32] = system: HBMSC; experiment: Induction of osteogenic differentiation in human BMSCs overexpressing miR-124-3p.1 assessed as increase in osteogenic medium-induced Smad4 protein expression level at 160 mg/ml by Western blot analysis; type: functional, tissue-based
[33] = system: HBMSC; experiment: Induction of osteogenic differentiation in human BMSCs overexpressing miR-124-3p.1 assessed as increase in osteogenic medium-induced RUNX2 mRNA expression level at 160 mg/ml by RT-qPCR analysis; type: functional, tissue-based
[34] = system: HBMSC; experiment: Induction of osteogenic differentiation in human BMSCs overexpressing miR-124-3p.1 assessed as increase in osteogenic medium-induced OCN mRNA expression level at 160 mg/ml by RT-qPCR analysis; type: functional, tissue-based
[35] = system: HBMSC; experiment: Induction of osteogenic differentiation in human BMSCs overexpressing miR-124-3p.1 assessed as increase in osteogenic medium-induced Smad4 mRNA expression level at 160 mg/ml by RT-qPCR analysis; type: functional, tissue-based

**Q.** With `CC(C)(O)[C@@H]1CC[C@](C)([C@H]2[C@@H](O)C[C@@]3(C)[C@@H]4C[C@H](O[C@@H]5O[C@H](CO)[C@@H](O)[C@H](O)[C@H]5O)[C@H]5C(C)(C)[C@@H](O[C@@H]6OC[C@@H](O)[C@H](O)[C@H]6O)CC[C@@]56C[C@@]46CC[C@]23C)O1` as the compound, how does the Activity [1] read?
**A.** Dose-Dependent Effect

**Q.** And the Activity [2]?
**A.** Dose-Dependent Effect

**Q.** And the Activity [3]?
**A.** Dose-Dependent Effect

**Q.** What about the Activity [4] of the same compound?
**A.** Dose-Dependent Effect

**Q.** And the Activity [5]?
**A.** Dose-Dependent Effect

**Q.** What about the Activity [6] of the same compound?
**A.** Dose-Dependent Effect

**Q.** And the Activity [7]?
**A.** Dose-Dependent Effect

**Q.** What about the Activity [8] of the same compound?
**A.** Dose-Dependent Effect

**Q.** What about the Activity [9] of the same compound?
**A.** Dose-Dependent Effect

**Q.** And the Activity [10]?
**A.** Dose-Dependent Effect

**Q.** What about the Activity [11] of the same compound?
**A.** Dose-Dependent Effect

**Q.** What about the Activity [12] of the same compound?
**A.** Dose-Dependent Effect

**Q.** What about the Activity [13] of the same compound?
**A.** Dose-Dependent Effect

**Q.** And the Activity [14]?
**A.** Dose-Dependent Effect

**Q.** What about the Activity [15] of the same compound?
**A.** Dose-Dependent Effect

**Q.** What about the Activity [16] of the same compound?
**A.** Dose-Dependent Effect

**Q.** And the Activity [17]?
**A.** Dose-Dependent Effect

**Q.** What about the Activity [18] of the same compound?
**A.** Dose-Dependent Effect

**Q.** And the Activity [19]?
**A.** Dose-Dependent Effect

**Q.** And the Activity [20]?
**A.** Dose-Dependent Effect

**Q.** And the Activity [21]?
**A.** Active

**Q.** What about the Activity [22] of the same compound?
**A.** Dose-Dependent Effect

**Q.** And the Activity [23]?
**A.** Dose-Dependent Effect

**Q.** What about the Activity [24] of the same compound?
**A.** inactive

**Q.** And the Activity [25]?
**A.** inactive

**Q.** What about the Activity [26] of the same compound?
**A.** inactive

**Q.** What about the Activity [27] of the same compound?
**A.** inactive

**Q.** And the Activity [28]?
**A.** inactive

**Q.** And the Activity [29]?
**A.** inactive

**Q.** What about the Activity [30] of the same compound?
**A.** inactive

**Q.** And the Activity [31]?
**A.** inactive

**Q.** What about the Activity [32] of the same compound?
**A.** inactive

**Q.** What about the Activity [33] of the same compound?
**A.** inactive

**Q.** And the Activity [34]?
**A.** inactive

**Q.** What about the Activity [35] of the same compound?
**A.** inactive
